Source: US4725683A, “Fluorophenoxyphenoxypropionates and derivatives thereof” (The Dow Chemical Company, priority 1985, dated 1988)

Key:
Format in all cases: in vivo
[1] = system: Foxtail; test: Postemergent control of plant species; conditions: 250 ppm
[2] = system: Barnyard Grass; test: Postemergent activity
Method: (§1) Representative compositions of the present invention were evaluated for the postemergence control of species of plants listed in Table A. In these evaluations, pots of the plant species listed in Table A, grown to a height of about 10 cms, were used. Aqueous spray compositions, containing various amounts of 2-[4-(2-fluoro-4-trifluoromethylphenoxy)-phenoxy]propionic acid methy ester, i.e., 125 ppm, 62.5 ppm, 31.25 ppm, 15.6 ppm, 7.8 ppm and 3.9 ppm, respectively, were applied to separate pots. The spray compositions were made by mixing the active ingredient in acetone to 1/2 the final volume, i.e., twice the final concentration. An equal amount of water was added to the active ingredient/acetone mixture wherein the water contained 0.1 percent by weight of TWEEN® 200 surfactant. The application to the plants was made to the point of run-off and was carried out with conventional spraying equipment. Other pots were sprayed with similar compositions containing no toxicant to serve as controls. Thereafter, the pots were maintained under conditions conducive for plant growth. Two weeks after treatment, the pots were examined for plant growth and evaluated on a scale of 0 to 100 where 0 represents no effect and 100 represents complete kill. The results of the examination of the treated pots are set forth below in Table A.
(§2) Substantially the same procedures as those described in Example A were repeated except that the active ingredients were 2-[4-(4-chloro-2-fluorophenoxy)phenoxy]propionic acid; methyl ester and its R-enantiomer and 2-(4-(4-bromo-2-fluorophenoxy)phenoxy propionic acid; methyl ester and its R enantiomer. The results are listed below in Table B.
(§3) In further operations employing the above general procedures and the indicated test compounds the following results were obtained: […]

[3] = system: Wild Oats; test: Postemergent activity; conditions: Avena fatua, post-emergence, 336 h
Method: as §1, §2, §3

[4] = system: Crabgrass; test: Postemergent activity
Method: as §1, §2, §3

[5] = system: Wheat; test: Postemergent activity; conditions: Triticum aestivum, post-emergence, 336 h, read-out: % Control
Method: as §1, §2, §3

[6] = system: Foxtail; test: Postemergent control of plant species
Method: as §1, §3

COC(=O)C=C(OC)C(C)Oc1ccc(Oc2ccc(Br)cc2F)cc1 (stereo not drawn)
100%: Percent Control [1] | % Control ([4]; 250 ppm)
0%: % Control ([2]; 7.8 ppm) | % Control ([2]; 15.6 ppm) | % Control ([2]; 31.2 ppm) | % Control ([2]; 62.5 ppm) | % Control ([2]; 125 ppm) | % Control ([2]; 250 ppm) | pest or weed control at 7.8 ppm ([3]; 7.8 ppm, read-out: % Control) | pest or weed control at 15.6 ppm ([3]; 15.6 ppm, read-out: % Control) | pest or weed control at 31.2 ppm ([3]; 31.2 ppm) | pest or weed control at 62.5 ppm ([3]; 62.5 ppm, read-out: % Control) | pest or weed control at 125 ppm ([3]; 125 ppm, read-out: % Control) | pest or weed control at 250 ppm ([3]; 250 ppm, read-out: % Control) | % Control ([4]; 7.8 ppm) | % Control ([4]; 15.6 ppm) | plant injury at 7.8 ppm ([5]; 7.8 ppm) | plant injury at 15.6 ppm ([5]; 15.6 ppm) | plant injury at 31.2 ppm ([5]; 31.2 ppm) | plant injury at 62.5 ppm ([5]; 62.5 ppm) | plant injury at 125 ppm ([5]; 125 ppm) | plant injury at 250 ppm ([5]; 250 ppm) | Percent Control ([6]; 7.8 ppm) | Percent Control ([6]; 15.6 ppm) | Percent Control ([6]; 31.2 ppm) | Percent Control ([6]; 62.5 ppm) | Percent Control ([6]; 125 ppm)
98%: % Control ([4]; 125 ppm)
20%: % Control ([4]; 31.2 ppm)
95%: % Control ([4]; 62.5 ppm)
